In patent US8192962B2, “Processes for detecting toxic substances” (Daikin Industries, Ltd., priority 2001, dated 2012):

Tested on: Metabolism protein genes
Assay: DNA chip mRNA expression in yeast, metabolism protein genes (Table 7)
Assay type: cell-based, Saccharomyces cerevisiae S288C
Method in brief: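 Value is the scanned fluorescence intensity ratio of exposed versus chemical-free cells. Log-phase S288C yeast in YPD at 25° C. received one toxic substance for two hours, dosed to slow growth without killing; Cy3/Cy5-labeled cDNA from oligo-dT-purified mRNA was hybridized to a whole-genome chip at 65° C.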

N#Cc1c(Cl)c(Cl)c(Cl)c(C#N)c1Cl [(9), 2,4,5,6-tetrachloro-1,3-benzenedicarbonitrile]
The level of expressed mRNA in the presence of chemical substance/The level of expressed mRNA in the absence of chemical substance (yeast gene YER178W): 1.7 | level of expressed mRNA in the presence/in the absence of chemical substance (yeast gene YFL011W): 0.3 | The level of expressed mRNA in the presence of chemical substance/The level of expressed mRNA in the absence of chemical substance (yeast gene YFL014W): 13.1 | The level of expressed mRNA in the presence of chemical substance/The level of expressed mRNA in the absence of chemical substance (yeast gene YFL030W): 24.5 | The level of expressed mRNA in the presence of chemical substance/The level of expressed mRNA in the absence of chemical substance (yeast gene YFL031W): 1.0 | The level of expressed mRNA in the presence of chemical substance/The level of expressed mRNA in the absence of chemical substance (yeast gene YFL056C): 162.3 | The level of expressed mRNA in the presence of chemical substance/The level of expressed mRNA in the absence of chemical substance (yeast gene YFL057C): 51.8 | The level of expressed mRNA in the presence of chemical substance/The level of expressed mRNA in the absence of chemical substance (yeast gene YFR047C): 3.0 | level of expressed mRNA in the presence/in the absence of chemical substance (yeast gene YGL012W): 0.3 | The level of expressed mRNA in the presence of chemical substance/The level of expressed mRNA in the absence of chemical substance (yeast gene YGL022W): 0.9 | The level of expressed mRNA in the presence of chemical substance/The level of expressed mRNA in the absence of chemical substance (yeast gene YGL026C): 3.7 | level of expressed mRNA in the presence/in the absence of chemical substance (yeast gene YGL115W): 1.2 | The level of expressed mRNA in the presence of chemical substance/The level of expressed mRNA in the absence of chemical substance (yeast gene YGL126W): 1.6 | The level of expressed mRNA in the presence of chemical substance/The level of expressed mRNA in the absence of chemical substance (yeast gene YGL202W): 1.3 | The level of expressed mRNA in the presence of chemical substance/The level of expressed mRNA in the absence of chemical substance (yeast gene YGL209W): 0.6 | The level of expressed mRNA in the presence of chemical substance/The level of expressed mRNA in the absence of chemical substance (yeast gene YGL248W): 0.2 | The level of expressed mRNA in the presence of chemical substance/The level of expressed mRNA in the absence of chemical substance (yeast gene YGL252C): 2.7 | The level of expressed mRNA in the presence of chemical substance/The level of expressed mRNA in the absence of chemical substance (yeast gene YGL254W): 3.1 | The level of expressed mRNA in the presence of chemical substance/The level of expressed mRNA in the absence of chemical substance (yeast gene YGR037C): 1.7 | The level of expressed mRNA in the presence of chemical substance/The level of expressed mRNA in the absence of chemical substance (yeast gene YGR055W): 5.0 | level of expressed mRNA in the presence/in the absence of chemical substance (yeast gene YGR096W): 0.8 | level of expressed mRNA in the presence/in the absence of chemical substance (yeast gene YGR191W): 0.1 | The level of expressed mRNA in the presence of chemical substance/The level of expressed mRNA in the absence of chemical substance (yeast gene YGR194C): 2.4 | level of expressed mRNA in the presence/in the absence of chemical substance (yeast gene YGR204W): 0.9 | The level of expressed mRNA in the presence of chemical substance/The level of expressed mRNA in the absence of chemical substance (yeast gene YGR256W): 3.4 | The level of expressed mRNA in the presence of chemical substance/The level of expressed mRNA in the absence of chemical substance (yeast gene YGR282C): 0.8 | level of expressed mRNA in the presence/in the absence of chemical substance (yeast gene YGR288W): 1.6 | level of expressed mRNA in the presence/in the absence of chemical substance (yeast gene YHR025W): 0.2 | The level of expressed mRNA in the presence of chemical substance/The level of expressed mRNA in the absence of chemical substance (yeast gene YHR111W): 4.5 | level of expressed mRNA in the presence/in the absence of chemical substance (yeast gene YHR123W): 0.8 | The level of expressed mRNA in the presence of chemical substance/The level of expressed mRNA in the absence of chemical substance (yeast gene YHR137W): 0.2 | The level of expressed mRNA in the presence of chemical substance/The level of expressed mRNA in the absence of chemical substance (yeast gene YHR174W): 1.0 | The level of expressed mRNA in the presence of chemical substance/The level of expressed mRNA in the absence of chemical substance (yeast gene YHR176W): 6.3 | level of expressed mRNA in the presence/in the absence of chemical substance (yeast gene YIL006W): 0.9 | The level of expressed mRNA in the presence of chemical substance/The level of expressed mRNA in the absence of chemical substance (yeast gene YIL045W): 2.1 | The level of expressed mRNA in the presence of chemical substance/The level of expressed mRNA in the absence of chemical substance (yeast gene YIL107C): 3.5 | The level of expressed mRNA in the presence of chemical substance/The level of expressed mRNA in the absence of chemical substance (yeast gene YIL154C): 2.4 | The level of expressed mRNA in the presence of chemical substance/The level of expressed mRNA in the absence of chemical substance (yeast gene YIL155C): 2.5 | The level of expressed mRNA in the presence of chemical substance/The level of expressed mRNA in the absence of chemical substance (yeast gene YIL167W): 6.9 | The level of expressed mRNA in the presence of chemical substance/The level of expressed mRNA in the absence of chemical substance (yeast gene YIL168W): 7.8 | The level of expressed mRNA in the presence of chemical substance/The level of expressed mRNA in the absence of chemical substance (yeast gene YIR031C): 2.6 | The level of expressed mRNA in the presence of chemical substance/The level of expressed mRNA in the absence of chemical substance (yeast gene YIR032C): 2.6 | The level of expressed mRNA in the presence of chemical substance/The level of expressed mRNA in the absence of chemical substance (yeast gene YIR034C): 3.2 | The level of expressed mRNA in the presence of chemical substance/The level of expressed mRNA in the absence of chemical substance (yeast gene YIR036C): 3.3 | The level of expressed mRNA in the presence of chemical substance/The level of expressed mRNA in the absence of chemical substance (yeast gene YJL031C): 4.7 | The level of expressed mRNA in the presence of chemical substance/The level of expressed mRNA in the absence of chemical substance (yeast gene YJL045W): 9.7 | The level of expressed mRNA in the presence of chemical substance/The level of expressed mRNA in the absence of chemical substance (yeast gene YJL060W): 5.3 | The level of expressed mRNA in the presence of chemical substance/The level of expressed mRNA in the absence of chemical substance (yeast gene YJL068C): 6.5 | The level of expressed mRNA in the presence of chemical substance/The level of expressed mRNA in the absence of chemical substance (yeast gene YJL088W): 3.2 | The level of expressed mRNA in the presence of chemical substance/The level of expressed mRNA in the absence of chemical substance (yeast gene YJL099W): 3.1
